Where two headings read alike, the source gives them in different places.
Key:
Experiment in all cases: Radiolabeled ATP kinase assay, panel of 60 kinases (Table S5)
Assay type in all cases: biochemical
[1] = molecular target: T1, panel of 60 human kinases (Homo sapiens, UniProt Q9HAZ1); details: CLK4; 0.1 μM; 10 μM ATP; read-out: % Enzyme Activity (relative to DSMO controls)
T1 construct: purchased Reaction Biology Corp
How it was run: (§1)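 Compounds at two concentrations, 0.1 μM and 0.5 μM, were screened for inhibition of 60 kinases in cell-free assays read out by radiolabeled ATP.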

[2] = molecular target: T2, panel of 60 human kinases (Homo sapiens, UniProt Q96GD4); details: Aurora B; 0.1 μM; 10 μM ATP; read-out: % Enzyme Activity (relative to DSMO controls)
T2 construct: purchased Reaction Biology Corp
How it was run: as §1

[3] = molecular target: T3, panel of 60 human kinases (Homo sapiens, UniProt O14965); details: Aurora A; 0.1 μM; 10 μM ATP; read-out: % Enzyme Activity (relative to DSMO controls)
T3 construct: purchased Reaction Biology Corp
T3 sequence (O14965 1-403): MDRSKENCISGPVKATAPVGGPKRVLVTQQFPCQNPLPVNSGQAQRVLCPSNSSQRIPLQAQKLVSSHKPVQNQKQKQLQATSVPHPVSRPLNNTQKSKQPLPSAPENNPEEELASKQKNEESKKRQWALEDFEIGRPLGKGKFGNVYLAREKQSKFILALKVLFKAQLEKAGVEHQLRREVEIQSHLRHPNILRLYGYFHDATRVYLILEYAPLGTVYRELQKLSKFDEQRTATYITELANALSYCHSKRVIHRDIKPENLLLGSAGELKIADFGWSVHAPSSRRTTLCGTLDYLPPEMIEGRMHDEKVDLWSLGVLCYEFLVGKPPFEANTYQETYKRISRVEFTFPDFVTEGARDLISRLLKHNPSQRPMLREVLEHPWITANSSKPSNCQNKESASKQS
How it was run: as §1

[4] = molecular target: T4, panel of 60 human kinases (Homo sapiens, UniProt P50750); details: 0.1 μM, 10 μM ATP, read-out: % Enzyme Activity (relative to DSMO controls)
T4 construct: purchased Reaction Biology Corp
How it was run: as §1

[5] = molecular target: T5, panel of 60 human kinases (Homo sapiens, UniProt Q00535); details: 0.1 μM, 10 μM ATP, read-out: % Enzyme Activity (relative to DSMO controls)
T5 construct: purchased Reaction Biology Corp
How it was run: as §1

[6] = molecular target: T6, panel of 60 human kinases (Homo sapiens, UniProt P45983); details: JNK1; 0.1 μM; 10 μM ATP; read-out: % Enzyme Activity (relative to DSMO controls)
T6 construct: purchased Reaction Biology Corp
How it was run: as §1

[7] = molecular target: T7, panel of 60 human kinases (Homo sapiens, UniProt P00519); details: ABL1; 0.1 μM; 10 μM ATP; read-out: % Enzyme Activity (relative to DSMO controls)
T7 construct: purchased Reaction Biology Corp
How it was run: as §1

[8] = molecular target: T8, panel of 60 human kinases (Homo sapiens, UniProt Q00536); details: CDK16/cyclin Y (PCTAIRE); 0.1 μM; 10 μM ATP; read-out: % Enzyme Activity (relative to DSMO controls)
T8 construct: purchased Reaction Biology Corp
How it was run: as §1

[9] = molecular target: T9, panel of 60 human kinases (Homo sapiens, UniProt Q9UKE5); details: TNIK; 0.1 μM; 10 μM ATP; read-out: % Enzyme Activity (relative to DSMO controls)
T9 construct: purchased Reaction Biology Corp
How it was run: as §1

[10] = molecular target: T10, panel of 60 human kinases (Homo sapiens, UniProt Q12851); details: GCK/MAP4K1; 0.1 μM; 10 μM ATP; read-out: % Enzyme Activity (relative to DSMO controls)
T10 construct: purchased Reaction Biology Corp
T10 sequence (Q12851 1-820): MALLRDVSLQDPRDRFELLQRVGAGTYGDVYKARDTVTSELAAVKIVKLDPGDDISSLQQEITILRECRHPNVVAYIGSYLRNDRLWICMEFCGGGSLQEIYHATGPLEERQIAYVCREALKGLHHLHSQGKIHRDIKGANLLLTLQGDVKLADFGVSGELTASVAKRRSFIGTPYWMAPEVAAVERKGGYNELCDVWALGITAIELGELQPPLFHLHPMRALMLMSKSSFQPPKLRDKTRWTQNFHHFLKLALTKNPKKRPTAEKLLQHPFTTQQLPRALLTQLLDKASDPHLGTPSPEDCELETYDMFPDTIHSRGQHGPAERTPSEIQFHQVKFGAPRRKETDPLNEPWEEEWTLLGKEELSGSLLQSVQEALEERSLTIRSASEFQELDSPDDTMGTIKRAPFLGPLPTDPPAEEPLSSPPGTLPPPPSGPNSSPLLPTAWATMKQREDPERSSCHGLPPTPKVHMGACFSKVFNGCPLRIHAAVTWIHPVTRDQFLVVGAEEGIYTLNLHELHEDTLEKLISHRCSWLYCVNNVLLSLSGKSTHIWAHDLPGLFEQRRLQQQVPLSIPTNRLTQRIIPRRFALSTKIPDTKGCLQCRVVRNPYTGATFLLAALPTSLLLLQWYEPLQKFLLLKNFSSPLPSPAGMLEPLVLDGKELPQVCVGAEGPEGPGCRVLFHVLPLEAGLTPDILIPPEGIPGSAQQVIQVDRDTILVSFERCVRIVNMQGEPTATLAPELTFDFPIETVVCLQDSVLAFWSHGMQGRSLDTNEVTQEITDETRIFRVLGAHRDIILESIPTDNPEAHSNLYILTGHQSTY
How it was run: as §1

[11] = molecular target: T11, panel of 60 human kinases (Homo sapiens, UniProt Q9Y4K4); details: KHS/MAPK4K5; 0.1 μM; 10 μM ATP; read-out: % Enzyme Activity (relative to DSMO controls)
T11 construct: purchased Reaction Biology Corp
How it was run: as §1

T4 sequence (P50750 whole entry): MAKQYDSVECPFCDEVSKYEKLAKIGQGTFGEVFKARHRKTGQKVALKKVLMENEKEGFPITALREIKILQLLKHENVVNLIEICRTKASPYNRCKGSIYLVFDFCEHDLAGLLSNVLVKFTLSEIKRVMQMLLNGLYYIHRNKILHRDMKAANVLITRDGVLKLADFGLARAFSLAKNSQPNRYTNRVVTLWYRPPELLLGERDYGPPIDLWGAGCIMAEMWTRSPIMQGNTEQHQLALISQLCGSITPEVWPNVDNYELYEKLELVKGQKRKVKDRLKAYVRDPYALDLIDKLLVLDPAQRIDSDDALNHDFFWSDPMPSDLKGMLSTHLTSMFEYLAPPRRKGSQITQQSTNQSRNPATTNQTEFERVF
T5 sequence (Q00535 whole entry): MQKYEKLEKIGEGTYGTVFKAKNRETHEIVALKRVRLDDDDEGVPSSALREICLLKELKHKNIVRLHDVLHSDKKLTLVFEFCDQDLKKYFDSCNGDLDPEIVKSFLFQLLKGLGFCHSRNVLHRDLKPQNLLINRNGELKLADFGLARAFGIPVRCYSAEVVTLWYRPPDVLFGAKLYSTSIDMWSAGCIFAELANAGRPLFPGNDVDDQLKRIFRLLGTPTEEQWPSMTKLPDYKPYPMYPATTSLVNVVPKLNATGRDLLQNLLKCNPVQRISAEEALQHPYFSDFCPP
T2 sequence (Q96GD4 whole entry): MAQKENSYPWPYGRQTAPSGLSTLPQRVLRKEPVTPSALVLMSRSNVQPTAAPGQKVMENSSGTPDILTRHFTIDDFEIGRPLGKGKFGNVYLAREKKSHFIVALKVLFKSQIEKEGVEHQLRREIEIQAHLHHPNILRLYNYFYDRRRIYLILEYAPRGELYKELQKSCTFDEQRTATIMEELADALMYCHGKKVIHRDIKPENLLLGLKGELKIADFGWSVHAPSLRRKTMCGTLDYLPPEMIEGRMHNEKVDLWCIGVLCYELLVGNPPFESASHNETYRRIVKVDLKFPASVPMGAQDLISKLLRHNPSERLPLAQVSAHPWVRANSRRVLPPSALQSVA
T6 sequence (P45983 whole entry): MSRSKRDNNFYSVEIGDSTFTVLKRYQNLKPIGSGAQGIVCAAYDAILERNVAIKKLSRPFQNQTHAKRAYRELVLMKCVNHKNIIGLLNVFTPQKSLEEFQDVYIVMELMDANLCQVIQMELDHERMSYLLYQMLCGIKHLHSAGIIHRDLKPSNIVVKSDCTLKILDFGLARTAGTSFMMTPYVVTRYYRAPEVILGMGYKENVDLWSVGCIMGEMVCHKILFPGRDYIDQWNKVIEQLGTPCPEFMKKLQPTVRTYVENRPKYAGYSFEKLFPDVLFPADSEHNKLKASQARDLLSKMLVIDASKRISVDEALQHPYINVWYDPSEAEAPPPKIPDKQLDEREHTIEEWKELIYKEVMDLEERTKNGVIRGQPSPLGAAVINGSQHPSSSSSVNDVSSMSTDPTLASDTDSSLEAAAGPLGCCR
T9 sequence (Q9UKE5 whole entry): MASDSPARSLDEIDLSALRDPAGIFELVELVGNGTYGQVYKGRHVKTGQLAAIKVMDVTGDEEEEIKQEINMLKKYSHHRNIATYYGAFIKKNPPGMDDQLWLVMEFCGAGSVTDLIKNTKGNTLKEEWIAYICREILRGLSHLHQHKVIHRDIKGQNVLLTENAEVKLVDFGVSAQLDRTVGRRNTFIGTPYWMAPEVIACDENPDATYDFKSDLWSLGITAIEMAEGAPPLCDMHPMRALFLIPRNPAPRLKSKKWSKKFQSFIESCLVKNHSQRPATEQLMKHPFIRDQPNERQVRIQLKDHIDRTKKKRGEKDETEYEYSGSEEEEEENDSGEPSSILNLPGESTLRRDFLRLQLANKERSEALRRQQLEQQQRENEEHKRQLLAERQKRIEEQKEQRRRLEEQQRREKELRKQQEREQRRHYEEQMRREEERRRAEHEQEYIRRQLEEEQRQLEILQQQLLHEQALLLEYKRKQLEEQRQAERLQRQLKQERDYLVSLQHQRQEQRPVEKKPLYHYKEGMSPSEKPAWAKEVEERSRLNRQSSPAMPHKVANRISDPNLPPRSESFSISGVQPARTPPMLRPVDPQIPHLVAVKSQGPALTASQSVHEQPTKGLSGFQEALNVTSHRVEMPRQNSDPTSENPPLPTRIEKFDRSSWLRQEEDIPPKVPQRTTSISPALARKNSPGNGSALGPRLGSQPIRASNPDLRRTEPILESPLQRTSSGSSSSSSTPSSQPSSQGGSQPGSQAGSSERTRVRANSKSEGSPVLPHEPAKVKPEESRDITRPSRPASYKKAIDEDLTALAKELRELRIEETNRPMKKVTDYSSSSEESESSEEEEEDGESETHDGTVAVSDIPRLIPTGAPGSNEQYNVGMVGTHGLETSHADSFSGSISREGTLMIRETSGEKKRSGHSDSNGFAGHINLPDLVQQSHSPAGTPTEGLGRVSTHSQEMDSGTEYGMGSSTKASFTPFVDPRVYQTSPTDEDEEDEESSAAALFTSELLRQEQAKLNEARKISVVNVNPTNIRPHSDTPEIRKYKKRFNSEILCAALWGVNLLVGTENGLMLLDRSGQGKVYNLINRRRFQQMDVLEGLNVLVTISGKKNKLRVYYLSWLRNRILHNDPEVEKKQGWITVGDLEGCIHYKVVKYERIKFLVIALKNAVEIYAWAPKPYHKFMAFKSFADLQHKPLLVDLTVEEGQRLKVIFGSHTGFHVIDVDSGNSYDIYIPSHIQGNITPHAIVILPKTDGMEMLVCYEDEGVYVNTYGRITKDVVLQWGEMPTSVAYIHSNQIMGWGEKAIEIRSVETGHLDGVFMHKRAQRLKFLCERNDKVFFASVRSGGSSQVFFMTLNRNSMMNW
T1 sequence (Q9HAZ1 whole entry): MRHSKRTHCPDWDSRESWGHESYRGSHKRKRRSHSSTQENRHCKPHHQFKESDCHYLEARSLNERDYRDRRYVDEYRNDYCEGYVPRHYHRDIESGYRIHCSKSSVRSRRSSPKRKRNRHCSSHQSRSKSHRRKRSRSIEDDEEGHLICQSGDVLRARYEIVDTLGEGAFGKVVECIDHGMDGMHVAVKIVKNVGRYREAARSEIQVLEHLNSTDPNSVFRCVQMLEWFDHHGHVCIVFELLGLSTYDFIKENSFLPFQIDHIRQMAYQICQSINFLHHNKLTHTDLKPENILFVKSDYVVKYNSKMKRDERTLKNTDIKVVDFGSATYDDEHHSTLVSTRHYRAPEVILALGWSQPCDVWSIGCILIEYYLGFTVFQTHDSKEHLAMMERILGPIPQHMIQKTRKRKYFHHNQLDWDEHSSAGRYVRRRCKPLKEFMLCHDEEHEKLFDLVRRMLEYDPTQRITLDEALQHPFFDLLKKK
T8 sequence (Q00536 whole entry): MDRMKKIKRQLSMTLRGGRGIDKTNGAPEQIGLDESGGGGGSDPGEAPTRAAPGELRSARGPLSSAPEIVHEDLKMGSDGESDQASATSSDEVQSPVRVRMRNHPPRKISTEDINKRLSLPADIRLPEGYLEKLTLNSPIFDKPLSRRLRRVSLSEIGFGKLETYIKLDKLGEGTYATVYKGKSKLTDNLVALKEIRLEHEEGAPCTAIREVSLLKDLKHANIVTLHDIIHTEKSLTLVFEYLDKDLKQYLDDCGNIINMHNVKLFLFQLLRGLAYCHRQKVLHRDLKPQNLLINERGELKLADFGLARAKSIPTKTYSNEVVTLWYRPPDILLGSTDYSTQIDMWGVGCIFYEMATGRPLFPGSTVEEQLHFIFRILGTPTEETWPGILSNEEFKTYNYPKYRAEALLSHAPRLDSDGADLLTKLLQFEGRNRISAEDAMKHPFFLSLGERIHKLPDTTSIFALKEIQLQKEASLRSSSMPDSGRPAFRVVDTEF
T7 sequence (P00519 whole entry): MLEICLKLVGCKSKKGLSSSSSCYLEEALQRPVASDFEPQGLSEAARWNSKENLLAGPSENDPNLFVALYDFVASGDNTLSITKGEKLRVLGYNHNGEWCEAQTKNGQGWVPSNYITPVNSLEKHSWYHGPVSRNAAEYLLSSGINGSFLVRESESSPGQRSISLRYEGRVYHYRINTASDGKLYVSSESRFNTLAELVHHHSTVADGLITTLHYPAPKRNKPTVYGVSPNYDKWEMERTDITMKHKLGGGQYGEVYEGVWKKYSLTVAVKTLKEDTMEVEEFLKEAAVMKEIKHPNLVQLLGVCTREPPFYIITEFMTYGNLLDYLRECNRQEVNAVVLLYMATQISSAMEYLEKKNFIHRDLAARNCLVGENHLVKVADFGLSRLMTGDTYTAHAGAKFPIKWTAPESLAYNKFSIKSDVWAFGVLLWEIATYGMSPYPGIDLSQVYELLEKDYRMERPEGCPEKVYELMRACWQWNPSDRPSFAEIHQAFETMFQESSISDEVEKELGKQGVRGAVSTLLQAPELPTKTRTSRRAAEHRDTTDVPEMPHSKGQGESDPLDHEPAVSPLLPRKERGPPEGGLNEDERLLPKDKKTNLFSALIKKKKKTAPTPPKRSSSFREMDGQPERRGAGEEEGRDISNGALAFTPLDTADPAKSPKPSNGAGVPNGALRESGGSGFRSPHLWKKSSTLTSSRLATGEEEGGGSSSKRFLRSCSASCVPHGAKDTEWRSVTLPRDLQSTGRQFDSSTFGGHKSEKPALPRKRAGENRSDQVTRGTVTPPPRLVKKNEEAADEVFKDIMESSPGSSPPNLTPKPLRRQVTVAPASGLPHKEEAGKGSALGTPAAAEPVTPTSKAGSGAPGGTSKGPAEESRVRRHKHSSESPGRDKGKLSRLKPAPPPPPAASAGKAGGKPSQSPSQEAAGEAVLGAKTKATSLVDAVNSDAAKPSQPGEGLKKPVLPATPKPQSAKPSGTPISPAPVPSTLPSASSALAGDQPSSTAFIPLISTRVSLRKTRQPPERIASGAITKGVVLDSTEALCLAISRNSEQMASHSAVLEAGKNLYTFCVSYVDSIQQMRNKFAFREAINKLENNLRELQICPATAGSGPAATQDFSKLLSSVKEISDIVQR

**Q.** For `CN1CCN(Cc2ccc(-c3cnc4[nH]cc(-c5ccoc5)c4c3)cc2)CC1` [Compound 7w, 3-(Furan-3-yl)-5-(4-((4-methylpiperazin-1-yl)methyl)phenyl)-1H-pyrrolo[2,3-b]pyridine], which remaining activity at 0.1 µM [1] is on record?
**A.** 85.5%

**Q.** What about the remaining activity at 0.1 µM [2] of the same compound?
**A.** 89.9%

**Q.** What about the remaining activity at 0.1 µM [3] of the same compound?
**A.** 83.9%

**Q.** What about the remaining activity at 0.1 µM ([4]; CDK9/cyclin K) of the same compound?
**A.** 97.8%

**Q.** What about the remaining activity at 0.1 µM ([4]; CDK9/cyclin T1) of the same compound?
**A.** 96.1%

**Q.** What about the remaining activity at 0.1 µM ([4]; CDK9/cyclin T2) of the same compound?
**A.** 65.6%

**Q.** What about the remaining activity at 0.1 µM ([5]; CDK5/p25) of the same compound?
**A.** 89.4%

**Q.** And the remaining activity at 0.1 µM ([5]; CDK5/p35)?
**A.** 82.2%

**Q.** And the remaining activity at 0.1 µM [6]?
**A.** 76.8%

**Q.** What about the remaining activity at 0.1 µM [7] of the same compound?
**A.** 64.8%

**Q.** What about the remaining activity at 0.1 µM [8] of the same compound?
**A.** 80.8%

**Q.** And the remaining activity at 0.1 µM [9]?
**A.** 0.45%

**Q.** And the remaining activity at 0.1 µM [10]?
**A.** 33.6%

**Q.** And the remaining activity at 0.1 µM [11]?
**A.** 15.1%

From US12227500B2, “Substituted pyrrolo[2,3-b]pyridines for suppressing toxic endoplasmic reticulum stress” (THE TRUSTEES OF COLUMBIA UNIVERSITY IN THE CITY OF NEW YORK, priority 2018, dated 2025)
